For 3 compounds, melting point results are on record in patent US6602825B1, “1-Aryl-1,3,5-triazine-4-thione-2,6-diones, production thereof and use thereof as herbicides” (BASF Aktiengesellschaft, priority 2001, dated 2003).

On to `Cn1c(=S)n(C)c(=O)n(-c2cc(C(=O)O)c(Cl)cc2F)c1=O` [Compound No. 28, 2-Chloro-5-(3,5-dimethyl-2,6-dioxo-4-thioxo-[1,3,5]triazinan-1-yl)-4-fluorobenzoic acid], for which the melting point was 225 to 229 °C.

The compound `Cn1c(=S)n(C)c(=O)n(-c2c(F)cc(Cl)c3ncoc23)c1=O` [Compound No. 65, 3-(4-chloro-6-fluorobenzoxazol-7-yl)-1,5-dimethyl-6-thioxo-[1,3,5]triazinane-2,4-dione] displayed a melting point of 209 to 211 °C.

As for `CCc1nc2c(Cl)cc(F)c(-n3c(=O)n(C)c(=S)n(C)c3=O)c2o1` [Compound No. 66, 3-(4-chloro-2-ethyl-6-fluorobenzoxazol-7-yl)-1,5-dimethyl-6-thioxo-[1,3,5]triazinane-2,4-dione], the melting point lay in the range of 156 to 159 °C.

As a reminder, the melting point is the temperature, or range, at which the solid turns liquid.
